≈ marks a conversion by molar mass, not a printed value.
Columns and labels:
Format in all cases: functional
Enterococcus faecalis [1] = assay: Antimicrobial activity against Enterococcus faecalis ATCC 29212 incubated for 24 hrs by serial dilution method; details: ATCC 29212, 24 h
Staphylococcus aureus [2] = assay: Antimicrobial activity against methicillin-susceptible Staphylococcus aureus ATCC 29213 incubated for 24 hrs by serial dilution method; details: ATCC 29213, 24 h
Staphylococcus aureus [3] = assay: Antimicrobial activity against methicillin-resistant Staphylococcus aureus ATCC 33591 incubated for 24 hrs by serial dilution method; details: ATCC 33591, 24 h
Escherichia coli [4] = assay: Antimicrobial activity against Escherichia coli ATCC 35218 incubated for 24 hrs by serial dilution method; details: ATCC 35218, 24 h
Klebsiella pneumoniae [5] = assay: Antimicrobial activity against Klebsiella pneumoniae ATCC 35657 incubated for 24 hrs by serial dilution method; details: ATCC 35657, 24 h
Moraxella catarrhalis = assay: Antimicrobial activity against Moraxella catarrhalis ATCC 25238 incubated for 24 hrs by serial dilution method; details: ATCC 25238, 24 h
A549 = assay: Growth inhibition of human A549 cells at 10 uM incubated for 48 hrs by MTT assay relative to control; details: A549, 48 h, read-out: GI
HCT-116 = assay: Growth inhibition of human HCT116 cells at 10 uM incubated for 48 hrs by MTT assay relative to control; details: HCT-116, 48 h, read-out: GI
HeLa = assay: Growth inhibition of human HeLa cells at 10 uM incubated for 48 hrs by MTT assay relative to control; details: read-out: GI
PANC-1 = assay: Growth inhibition of human PANC1 cells at 10 uM incubated for 48 hrs by MTT assay; details: PANC-1, 48 h, read-out: GI
Staphylococcus aureus [6] = assay: Antimicrobial activity against methicillin-resistant Staphylococcus aureus ATCC 25923 by microdilution method
Escherichia coli [7] = assay: Antimicrobial activity against Escherichia coli ATCC […] by microdilution method
Escherichia coli [8] = assay: Antimicrobial activity against multidrug resistance Escherichia coli ATCC 35218 by microdilution method
Staphylococcus aureus [9] = assay: Antimicrobial activity against Staphylococcus aureus ATCC 29213 by microdilution method
[10] = system: Mycobacterium tuberculosis; assay: Antimicrobial activity against Mycobacterium tuberculosis H37Rv incubated for 10 days by microbroth dilution method; details: 240 h
Escherichia coli [11] = assay: Antimicrobial activity against Escherichia coli ATCC 9637 incubated for 24 hrs by CLSI-based broth microdilution method; details: W ATCC 9637, 24 h
Pseudomonas aeruginosa [12] = assay: Antimicrobial activity against Pseudomonas aeruginosa ATCC BAA-427 incubated for 24 hrs by CLSI-based broth microdilution method; details: ATCC BAA-427, 24 h
Staphylococcus aureus [13] = assay: Antimicrobial activity against methicillin-resistant Staphylococcus aureus ATCC 700699 incubated for 24 hrs by CLSI-based broth microdilution method; details: ATCC 700699, 24 h
Staphylococcus aureus [14] = assay: Antimicrobial activity against gentamicin-resistant Staphylococcus aureus ATCC 33592 incubated for 24 hrs by CLSI-based broth microdilution method; details: ATCC 33592, 24 h
Klebsiella pneumoniae [15] = assay: Antimicrobial activity against Klebsiella pneumoniae ATCC 27736 incubated for 24 hrs by CLSI-based broth microdilution method; details: ATCC 27736, 24 h
Staphylococcus aureus [16] = assay: Antimicrobial activity against Staphylococcus aureus ATCC 29213 incubated for 24 hrs by CLSI-based dilution method; details: ATCC 29213, 24 h
Staphylococcus aureus [17] = assay: Antimicrobial activity against Staphylococcus aureus ATCC 25923 incubated for 24 hrs by CLSI-based dilution method; details: ATCC 25923, 24 h
Staphylococcus aureus [18] = assay: Antimicrobial activity against methicillin-susceptible Staphylococcus aureus ATCC 29213 incubated for 16 hrs by CLSI method; details: ATCC 29213, 16 h
Staphylococcus aureus [19] = assay: Antimicrobial activity against healthcare-acquired methicillin-resistant Staphylococcus aureus NRS70 incubated for 16 hrs by CLSI method; details: NRS70, 16 h
Pseudomonas aeruginosa [20] = assay: Antimicrobial activity against Pseudomonas aeruginosa ATCC 43288 incubated for 18 to 24 hrs by microbroth dilution method
[21] = system: Yersinia pseudotuberculosis; assay: Antimicrobial activity against Yersinia pseudotuberculosis ATCC 911 incubated for 18 to 24 hrs by microbroth dilution method
Staphylococcus aureus [22] = assay: Antimicrobial activity against Staphylococcus aureus ATCC 25923 incubated for 18 to 24 hrs by microbroth dilution method
Enterococcus faecalis [23] = assay: Antimicrobial activity against Enterococcus faecalis ATCC 29212 incubated for 18 to 24 hrs by microbroth dilution method
Bacillus cereus = assay: Antimicrobial activity against Bacillus cereus 709 Roma incubated for 18 to 24 hrs by microbroth dilution method
[24] = system: Mycolicibacterium smegmatis; assay: Antimicrobial activity against Mycobacterium smegmatis ATCC 607 incubated for 48 to 72 hrs by microbroth dilution method

SMILES: CCN(CC)Cc1cn(-c2cc3c(cc2F)c(=O)c(C(=O)NO)cn3C2CC2)nn1
- MIC (Enterococcus faecalis [1]): 64 µg/mL (≈ 154 µM)
- MIC (Staphylococcus aureus [2]): 64 µg/mL (≈ 154 µM)
- MIC (Staphylococcus aureus [3]): > 64 µg/mL
- MIC (Escherichia coli [4]): 16 µg/mL (≈ 38.6 µM)
- MIC (Klebsiella pneumoniae [5]): 8 µg/mL (≈ 19.3 µM)
- MIC (Moraxella catarrhalis): 16 µg/mL (≈ 38.6 µM)
- inhibition of growth at 10 µM (A549): 40%
- inhibition of growth at 10 µM (HCT-116): 30%
- inhibition of growth at 10 µM (HeLa): 10%
- inhibition of growth at 10 µM (PANC-1): 30%

SMILES: CN1CCN(N(Cn2nc3c(F)cc4c(=O)c(C(=O)O)cn(C5CC5)c4n3c2=O)N2CCN(C)CC2)CC1
- MIC (Staphylococcus aureus [6]): ≤ 2 µg/mL
- MIC (Escherichia coli [7]): ≤ 0.25 µg/mL
- MIC (Escherichia coli [8]): ≤ 2 µg/mL
- MIC (Staphylococcus aureus [9]): ≤ 0.25 µg/mL

SMILES: CN(C)Cc1cn(-c2cc3c(cc2F)c(=O)c(C(=O)NO)cn3C2CC2)nn1
- MIC (Enterococcus faecalis [1]): > 64 µg/mL
- MIC (Staphylococcus aureus [2]): > 64 µg/mL
- MIC (Staphylococcus aureus [3]): > 64 µg/mL
- MIC (Escherichia coli [4]): > 64 µg/mL
- MIC (Klebsiella pneumoniae [5]): > 64 µg/mL
- MIC (Moraxella catarrhalis): > 64 µg/mL
- inhibition of growth at 10 µM (A549): 30%
- inhibition of growth at 10 µM (HCT-116): 15%
- inhibition of growth at 10 µM (HeLa): 23%
- inhibition of growth at 10 µM (PANC-1): 20%

SMILES: C[C@H]1COc2c(-c3cc4ccccc4oc3=O)c(F)cc3c(=O)c(C(=O)O)cn1c23
- MIC [10]: 12.5 µg/mL (≈ 30.7 µM)

SMILES: CCn1cc(C(=O)O)c(=O)c2cc(F)c(-n3cc(CO[C@H]4OC[C@@H](OC(C)=O)[C@@H](OC(C)=O)[C@H]4OC(C)=O)nn3)c(F)c21
- MIC (Escherichia coli [11]): 6.25 µg/mL (≈ 10.3 µM)
- MIC (Pseudomonas aeruginosa [12]): > 50 µg/mL
- MIC (Staphylococcus aureus [13]): > 50 µg/mL
- MIC (Staphylococcus aureus [14]): 3.12 µg/mL (≈ 5.13 µM)
- MIC (Klebsiella pneumoniae [15]): 3.12 µg/mL (≈ 5.13 µM)
- MIC (Staphylococcus aureus [16]): 3.12 µg/mL (≈ 5.13 µM)
- MIC (Staphylococcus aureus [17]): 3.12 µg/mL (≈ 5.13 µM)

SMILES: COc1c(N2CCCC2)c(F)cc2c(=O)c(C(=O)Nc3nccs3)cn(C3CC3)c12
- MIC90 (Staphylococcus aureus [18]): > 201 µg/mL
- MIC90 (Staphylococcus aureus [19]): > 201 µg/mL

SMILES: CCN(CC)N(Cn1nc2c(F)cc3c(=O)c(C(=O)O)cn(C4CC4)c3n2c1=O)N(CC)CC
- MIC (Staphylococcus aureus [6]): ≤ 32 µg/mL
- MIC (Escherichia coli [7]): ≤ 16 µg/mL
- MIC (Escherichia coli [8]): ≤ 32 µg/mL
- MIC (Staphylococcus aureus [9]): ≤ 8 µg/mL

SMILES: CCn1cc(C(=O)O)c(=O)c2cc(F)c(N3CCN(Cn4nc(CN5CCN(c6ccc([N+](=O)[O-])cc6)CC5)n(-c5ccc(F)cc5)c4=O)CC3)cc21
- MIC (Pseudomonas aeruginosa [20]): 0.24 µg/mL (≈ 0.329 µM)
- MIC [21]: 0.12 µg/mL (≈ 0.164 µM)
- MIC (Staphylococcus aureus [22]): 0.48 µg/mL (≈ 0.658 µM)
- MIC (Enterococcus faecalis [23]): 0.122 µg/mL (≈ 0.167 µM)
- MIC (Bacillus cereus): 0.12 µg/mL (≈ 0.164 µM)
- MIC [24]: 0.244 µg/mL (≈ 0.334 µM)

SMILES: C[C@H]1COc2c(-c3cc4cc(Br)ccc4oc3=O)c(F)cc3c(=O)c(C(=O)O)cn1c23
- MIC [10]: 12.5 µg/mL (≈ 25.7 µM)

SMILES: CCn1cc(C(=O)O)c(=O)c2cc(F)c(-n3cc(CO[C@H]4OC[C@@H](OC(C)=O)[C@@H](OC(C)=O)[C@@H]4OC(C)=O)nn3)c(F)c21
- MIC (Escherichia coli [11]): 12.5 µg/mL (≈ 20.5 µM)
- MIC (Pseudomonas aeruginosa [12]): > 50 µg/mL
- MIC (Staphylococcus aureus [13]): > 50 µg/mL
- MIC (Staphylococcus aureus [14]): 6.25 µg/mL (≈ 10.3 µM)
- MIC (Klebsiella pneumoniae [15]): 6.25 µg/mL (≈ 10.3 µM)
- MIC (Staphylococcus aureus [16]): 6.25 µg/mL (≈ 10.3 µM)
- MIC (Staphylococcus aureus [17]): 6.25 µg/mL (≈ 10.3 µM)

SMILES: COc1c(N2CCCCC2)c(F)cc2c(=O)c(C(=O)Nc3nccs3)cn(C3CC3)c12
- MIC90 (Staphylococcus aureus [18]): > 201 µg/mL
- MIC90 (Staphylococcus aureus [19]): > 201 µg/mL

SMILES: COc1c(N2CCNCC2)c(F)cc2c(=O)c(C(=O)N3CCSC3)cn(C3CC3)c12
- MIC90 (Staphylococcus aureus [18]): 0.39 µg/mL (≈ 0.902 µM)
- MIC90 (Staphylococcus aureus [19]): 0.62 µg/mL (≈ 1.43 µM)

SMILES: CCCN(CCC)Cc1cn(-c2cc3c(cc2F)c(=O)c(C(=O)NO)cn3C2CC2)nn1
- MIC (Enterococcus faecalis [1]): 64 µg/mL (≈ 145 µM)
- MIC (Staphylococcus aureus [2]): 64 µg/mL (≈ 145 µM)
- MIC (Staphylococcus aureus [3]): > 64 µg/mL
- MIC (Escherichia coli [4]): 64 µg/mL (≈ 145 µM)
- MIC (Klebsiella pneumoniae [5]): 32 µg/mL (≈ 72.3 µM)
- MIC (Moraxella catarrhalis): 64 µg/mL (≈ 145 µM)
- inhibition of growth at 10 µM (A549): 20%
- inhibition of growth at 10 µM (HCT-116): 10%
- inhibition of growth at 10 µM (HeLa): 15%
- inhibition of growth at 10 µM (PANC-1): 15%

SMILES: CCn1cc(C(=O)O)c(=O)c2cc(F)c(N3CCN(Cn4nc(CN5CCN(c6ccc([N+](=O)[O-])cc6)CC5)n(-c5ccccc5)c4=O)CC3)cc21
- MIC (Pseudomonas aeruginosa [20]): 0.24 to 0.48 µg/mL (≈ 0.337 to 0.674 µM)
- MIC [21]: 0.03 to 0.25 µg/mL (≈ 0.0421 to 0.351 µM)
- MIC (Staphylococcus aureus [22]): 0.24 to 0.48 µg/mL (≈ 0.337 to 0.674 µM)
- MIC (Enterococcus faecalis [23]): 0.122 µg/mL (≈ 0.171 µM)
- MIC (Bacillus cereus): 0.03 to 0.25 µg/mL (≈ 0.0421 to 0.351 µM)
- MIC [24]: 0.244 to 0.25 µg/mL (≈ 0.343 to 0.351 µM)

SMILES: CCn1cc(C(=O)O)c(=O)c2cc(F)c(-n3cc(CO[C@H]4O[C@H](COC(C)=O)[C@@H](OC(C)=O)[C@H](OC(C)=O)[C@@H]4OC(C)=O)nn3)c(F)c21
- MIC (Escherichia coli [11]): 50 µg/mL (≈ 73.5 µM)
- MIC (Pseudomonas aeruginosa [12]): > 50 µg/mL
- MIC (Staphylococcus aureus [13]): > 50 µg/mL
- MIC (Staphylococcus aureus [14]): 12.5 µg/mL (≈ 18.4 µM)
- MIC (Klebsiella pneumoniae [15]): 25 µg/mL (≈ 36.7 µM)
- MIC (Staphylococcus aureus [16]): 12.5 µg/mL (≈ 18.4 µM)
- MIC (Staphylococcus aureus [17]): 12.5 µg/mL (≈ 18.4 µM)

SMILES: CCn1cc(C(=O)O)c(=O)c2cc(F)c(-n3cc(CO[C@H]4O[C@H](COC(C)=O)[C@@H](OC(C)=O)[C@H](OC(C)=O)[C@H]4OC(C)=O)nn3)c(F)c21
- MIC (Escherichia coli [11]): > 50 µg/mL
- MIC (Pseudomonas aeruginosa [12]): > 50 µg/mL
- MIC (Staphylococcus aureus [13]): > 50 µg/mL
- MIC (Staphylococcus aureus [14]): > 50 µg/mL
- MIC (Klebsiella pneumoniae [15]): > 50 µg/mL
- MIC (Staphylococcus aureus [16]): > 50 µg/mL
- MIC (Staphylococcus aureus [17]): > 50 µg/mL

From ChEMBL document CHEMBL4602605, “Fluoroquinolones structural and medicinal developments (2013-2018): Where are we now?” (Bioorg Med Chem, 2019)
